Source: patent US8044095B2, “Mixture of catechins or rather polyphenols extracted from chinese green tea or other vegetables for the prevention of prostate cancer and for the treatment of prostate hypertrophy (BPH)” (Genprofiler s.r.l., priority 2004, dated 2011)

What was measured:
PNT1a = experiment: Dose-response growth study in SV40-immortalized human prostate epithelial cells (PNT1a), compared with PC-3; assay type: cell-based; conditions: PNT1a versus PC-3 cells
[1] = test system: normal human prostate epithelial cells (EPIT); experiment: Dose-response growth study in normal human prostate epithelial cells (EPIT); assay type: cell-based; conditions: increasing quantities of EGCG, cells in culture
[2] = in vivo; cited from earlier work
[3] = test system: prostate cancer in rats TRAMP; conditions: rat, in vivo
From the text: To show the validity of this hypothesis we worked on a preclinical animal model of […]. One of the more important preclinical models for the study of prostate tumor in vivo consists of transgenic rats TRAMP. These animals, when recombinant homozygotes develop prostate cancer with 100% probability in the adult stage. Progress of the illness recapitulates the essential phases of onset and progress of the human ailment. Indeed, it begins with lesions of the Prostate Intraepithelial Neoplasia (PIN) type to then give full blown neoplastic histological lesions, evolve subsequently towards androgen-resistant and aggressive phenotypes, then originating extraprostate and metastatic lesions in the terminal phase. […] Reduction of the onset of this neoplasia in treated animals was 80% (only 20 cases of neoplasia in 100 against 100 out of 100 in untreated animals).

Row | Compound | IC50 of EGCG in PNT1a relative to PC-3 (PNT1a) | growth of EPIT [1] | half-life in plasma [2] | adverse or collateral effect in vitro and in the animal model [3]
1 | O=C(O[C@@H]1Cc2c(O)cc(O)cc2O[C@@H]1c1cc(O)c(O)c(O)c1)c1cc(O)c(O)c(O)c1 [EGCG, (−)-epigallocatechina-3-gallato] | very lower than in PC-3 | not modified significantly | over 5 hours | 
2 | catechins |  |  |  | did not witness any adverse or collateral effect
